Test results from patent US12275731B2, “Azaindole inhibitors of wild-type and mutant forms of LRRK2” (DANA-FARBER CANCER INSTITUTE, INC., priority 2018, dated 2025).

Tests used:
Assay in all cases: KinomeScan profiling
Assay type in all cases: binding
ERK2 = ERK2 (Homo sapiens, UniProt P28482); settings: ERK2, 1 μM; read-out: % control
Outline: (§1)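 Selectivity was assessed by binding competition at 1 μM against 468 kinases. Values below 35% of control define an interaction.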

SRPK1 = target: T1, SRPK1 (Homo sapiens, UniProt Q96SB4); settings: SRPK1, 1 μM; read-out: % control
T1 construct: purchased KinomeScan® (panel service)
T1 sequence (Q96SB4 whole entry): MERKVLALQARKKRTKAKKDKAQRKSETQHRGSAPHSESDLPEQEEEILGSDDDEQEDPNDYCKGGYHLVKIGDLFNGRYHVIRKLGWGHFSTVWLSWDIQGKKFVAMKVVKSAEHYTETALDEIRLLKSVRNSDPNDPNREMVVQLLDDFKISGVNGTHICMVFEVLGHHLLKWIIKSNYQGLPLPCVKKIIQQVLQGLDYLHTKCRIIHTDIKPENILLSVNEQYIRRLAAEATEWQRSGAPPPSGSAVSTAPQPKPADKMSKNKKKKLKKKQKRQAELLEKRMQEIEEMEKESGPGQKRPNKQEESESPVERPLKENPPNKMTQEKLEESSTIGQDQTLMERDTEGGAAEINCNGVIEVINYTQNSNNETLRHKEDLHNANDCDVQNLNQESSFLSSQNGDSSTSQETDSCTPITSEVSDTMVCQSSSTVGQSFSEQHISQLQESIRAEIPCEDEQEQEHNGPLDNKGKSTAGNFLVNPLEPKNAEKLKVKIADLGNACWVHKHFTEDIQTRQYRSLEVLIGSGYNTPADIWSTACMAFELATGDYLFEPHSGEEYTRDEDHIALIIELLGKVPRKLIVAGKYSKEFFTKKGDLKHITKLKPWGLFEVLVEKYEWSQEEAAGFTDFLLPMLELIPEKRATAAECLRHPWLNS
Outline: as §1

AXL = target: T2, AXL (Homo sapiens, UniProt P30530); settings: read-out: % control
T2 construct: purchased KinomeScan®
T2 sequence (P30530 26-894): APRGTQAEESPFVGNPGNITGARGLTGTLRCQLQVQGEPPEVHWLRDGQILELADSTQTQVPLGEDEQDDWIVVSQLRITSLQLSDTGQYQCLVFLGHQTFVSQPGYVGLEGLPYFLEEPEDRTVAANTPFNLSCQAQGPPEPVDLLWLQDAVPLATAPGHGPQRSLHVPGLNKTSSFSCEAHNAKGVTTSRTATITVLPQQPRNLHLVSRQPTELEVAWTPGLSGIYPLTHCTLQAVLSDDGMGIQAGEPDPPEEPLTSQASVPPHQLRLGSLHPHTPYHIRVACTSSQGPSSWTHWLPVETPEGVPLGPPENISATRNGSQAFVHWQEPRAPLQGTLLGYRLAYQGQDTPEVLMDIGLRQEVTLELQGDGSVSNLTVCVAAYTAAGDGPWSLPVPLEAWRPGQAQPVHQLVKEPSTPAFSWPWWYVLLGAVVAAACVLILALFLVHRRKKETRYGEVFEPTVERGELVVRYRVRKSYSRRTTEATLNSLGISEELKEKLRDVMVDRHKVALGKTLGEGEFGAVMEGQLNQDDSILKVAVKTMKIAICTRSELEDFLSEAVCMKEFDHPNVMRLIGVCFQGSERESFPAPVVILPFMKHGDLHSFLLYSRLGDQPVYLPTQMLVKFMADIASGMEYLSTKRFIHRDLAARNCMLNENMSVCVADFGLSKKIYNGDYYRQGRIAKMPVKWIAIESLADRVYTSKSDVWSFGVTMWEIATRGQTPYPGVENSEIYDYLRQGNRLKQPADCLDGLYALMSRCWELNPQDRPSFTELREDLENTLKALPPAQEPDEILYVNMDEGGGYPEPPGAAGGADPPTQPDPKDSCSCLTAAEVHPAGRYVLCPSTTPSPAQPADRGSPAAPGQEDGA
Outline: as §1

CLK1 = CLK1 (Homo sapiens, UniProt P49759); settings: CLK1, 1 μM; read-out: % control
Chain of CLK1 (P49759 whole entry): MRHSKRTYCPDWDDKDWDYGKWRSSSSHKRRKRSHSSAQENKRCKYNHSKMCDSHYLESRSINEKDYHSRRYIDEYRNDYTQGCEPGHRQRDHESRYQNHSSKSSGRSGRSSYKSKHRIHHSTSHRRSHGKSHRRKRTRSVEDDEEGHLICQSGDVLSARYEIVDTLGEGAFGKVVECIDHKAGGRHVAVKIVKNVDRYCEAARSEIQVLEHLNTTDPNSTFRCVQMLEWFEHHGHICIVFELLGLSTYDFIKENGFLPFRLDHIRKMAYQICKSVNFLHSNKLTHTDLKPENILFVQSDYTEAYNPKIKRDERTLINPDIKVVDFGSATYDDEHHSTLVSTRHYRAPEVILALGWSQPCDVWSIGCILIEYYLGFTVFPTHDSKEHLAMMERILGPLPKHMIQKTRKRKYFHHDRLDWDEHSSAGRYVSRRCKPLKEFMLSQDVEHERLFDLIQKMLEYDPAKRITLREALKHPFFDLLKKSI
Outline: as §1

TAOK1 = target: T3, TAOK1 (Homo sapiens, UniProt Q7L7X3); settings: TAOK1, 1 μM; read-out: % control
T3 construct: purchased KinomeScan® (panel service)
T3 sequence (Q7L7X3 1-1001): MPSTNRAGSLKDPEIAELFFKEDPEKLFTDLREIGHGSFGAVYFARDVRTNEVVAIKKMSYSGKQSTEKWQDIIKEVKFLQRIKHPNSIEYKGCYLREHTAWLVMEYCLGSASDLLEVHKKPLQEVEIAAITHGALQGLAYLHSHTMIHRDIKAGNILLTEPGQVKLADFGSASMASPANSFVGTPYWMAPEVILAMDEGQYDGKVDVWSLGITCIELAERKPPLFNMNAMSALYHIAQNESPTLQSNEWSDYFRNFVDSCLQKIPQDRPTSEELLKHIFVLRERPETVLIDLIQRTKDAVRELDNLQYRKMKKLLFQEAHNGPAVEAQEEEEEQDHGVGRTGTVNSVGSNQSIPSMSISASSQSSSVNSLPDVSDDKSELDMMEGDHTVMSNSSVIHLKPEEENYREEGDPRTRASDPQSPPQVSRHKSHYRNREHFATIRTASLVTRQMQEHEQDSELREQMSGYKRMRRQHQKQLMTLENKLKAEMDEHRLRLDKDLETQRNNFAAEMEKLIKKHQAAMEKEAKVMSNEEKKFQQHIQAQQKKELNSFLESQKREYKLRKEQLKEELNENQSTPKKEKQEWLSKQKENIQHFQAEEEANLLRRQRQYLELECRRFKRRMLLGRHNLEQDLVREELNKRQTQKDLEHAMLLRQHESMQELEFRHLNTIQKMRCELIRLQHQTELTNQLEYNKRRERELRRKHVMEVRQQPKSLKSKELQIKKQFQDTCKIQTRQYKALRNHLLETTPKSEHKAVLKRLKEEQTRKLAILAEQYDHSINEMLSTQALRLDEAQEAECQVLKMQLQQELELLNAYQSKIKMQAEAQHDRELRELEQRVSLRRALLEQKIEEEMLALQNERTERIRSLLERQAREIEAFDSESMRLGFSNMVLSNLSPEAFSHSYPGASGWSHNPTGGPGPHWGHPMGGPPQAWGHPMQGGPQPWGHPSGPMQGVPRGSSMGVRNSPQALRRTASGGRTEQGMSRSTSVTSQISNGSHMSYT
Outline: as §1

IRAK3 = target: T4, IRAK3 (Homo sapiens, UniProt Q9Y616); settings: IRAK3, 1 μM; read-out: % control
T4 construct: purchased KinomeScan®
T4 sequence (Q9Y616 1-596): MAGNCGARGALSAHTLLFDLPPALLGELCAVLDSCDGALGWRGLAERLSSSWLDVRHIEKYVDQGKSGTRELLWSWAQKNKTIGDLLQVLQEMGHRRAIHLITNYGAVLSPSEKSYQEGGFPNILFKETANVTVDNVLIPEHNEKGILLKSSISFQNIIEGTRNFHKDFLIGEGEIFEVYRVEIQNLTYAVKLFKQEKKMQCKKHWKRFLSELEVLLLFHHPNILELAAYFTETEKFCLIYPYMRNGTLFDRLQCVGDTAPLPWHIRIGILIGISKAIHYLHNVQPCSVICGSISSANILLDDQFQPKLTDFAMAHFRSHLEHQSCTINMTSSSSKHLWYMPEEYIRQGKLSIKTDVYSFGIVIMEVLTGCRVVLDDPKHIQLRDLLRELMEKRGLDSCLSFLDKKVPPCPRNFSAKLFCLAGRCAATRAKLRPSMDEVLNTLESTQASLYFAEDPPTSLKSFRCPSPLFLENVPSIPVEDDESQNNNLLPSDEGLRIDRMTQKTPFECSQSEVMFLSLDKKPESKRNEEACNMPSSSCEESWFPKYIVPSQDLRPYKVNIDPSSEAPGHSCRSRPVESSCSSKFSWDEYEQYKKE
Outline: as §1

Chain of ERK2 (P28482 whole entry): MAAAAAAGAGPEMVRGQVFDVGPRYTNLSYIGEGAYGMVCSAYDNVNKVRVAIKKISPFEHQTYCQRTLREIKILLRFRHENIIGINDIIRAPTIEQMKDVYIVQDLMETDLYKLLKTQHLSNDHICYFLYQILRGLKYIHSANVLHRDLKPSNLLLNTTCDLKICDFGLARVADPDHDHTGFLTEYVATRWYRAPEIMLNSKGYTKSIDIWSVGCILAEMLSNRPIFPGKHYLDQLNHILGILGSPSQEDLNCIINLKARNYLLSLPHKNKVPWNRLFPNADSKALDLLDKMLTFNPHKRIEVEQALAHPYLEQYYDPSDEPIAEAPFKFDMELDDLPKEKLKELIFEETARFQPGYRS

SMILES | remaining binding at 1 µM (ERK2) | remaining binding at 1 µM (SRPK1) | remaining binding at 1 µM (AXL) | remaining binding at 1 µM (CLK1) | remaining binding at 1 µM (TAOK1) | remaining binding at 1 µM (IRAK3)
CNc1c(-c2cnn([C@H]3CCN(C(C)=O)C[C@@H]3F)c2)cnc2[nH]cc(Cl)c12 [Compound 77, 1-((3S,4S)-4-(4-(3-chloro-4-(methylamino)-1H-pyrrolo[2,3-b]pyridin-5-yl)-1H-pyrazol-1-yl)-3-fluoropiperidin-1-yl)ethan-1-one] | 91% | 10% | 8.5% | 84% | 100% | 40%
CNc1c(-c2ccc(C(=O)N3CCC(N4CCOCC4)CC3)cc2)cnc2[nH]cc(Cl)c12 [Compound 96, (4-(3-chloro-4-(methylamino)-1H-pyrrolo[2,3-b]pyridin-5-yl)phenyl)(4-morpholinopiperidin-1-yl)methanone] | 95% | 17% | 33% | 33% | 96% | 76%
O=C(c1ccc(-c2cnc3[nH]cc(Cl)c3c2NC2CCCC2)cc1)N1CCC(N2CCOCC2)CC1 [Compound 101, (4-(3-chloro-4-(cyclopentylamino)-1H-pyrrolo[2,3-b]pyridin-5-yl)phenyl)(4-morpholinopiperidin-1-yl)methanone] | 93% | 27% | 40% | 59% | 99% | 37%
